Measured values reported in US20240336697A1, “METHODS OF USING ANTI-CD79B IMMUNOCONJUGATES TO TREAT DIFFUSE LARGE B-CELL LYMPHOMA” (Genentech, Inc., priority 2021, published 2024).
Where a SMILES comes first, the peptide text is derived from it. [ ]: non-standard residue; d: D form. The star is where a group is joined. Dolaproine = CO[C@@H]([C@@H]1CCCN1)[C@@H](C)C(=O)O; Dil = CC[C@H](C)[C@H](NC)[C@@H](CC(=O)O)OC; X1 = C[C@@H](N*)[C@@H](O)c1ccccc1; NMeV = CN[C@H](C(=O)O)C(C)C

What was measured:
CYP3A4 = CYP3A4 (Homo sapiens, UniProt P08684); experiment: In vitro metabolism of unconjugated MMAE; type: in vitro ADME; details: in vitro data
Sequence of CYP3A4 (P08684 whole entry): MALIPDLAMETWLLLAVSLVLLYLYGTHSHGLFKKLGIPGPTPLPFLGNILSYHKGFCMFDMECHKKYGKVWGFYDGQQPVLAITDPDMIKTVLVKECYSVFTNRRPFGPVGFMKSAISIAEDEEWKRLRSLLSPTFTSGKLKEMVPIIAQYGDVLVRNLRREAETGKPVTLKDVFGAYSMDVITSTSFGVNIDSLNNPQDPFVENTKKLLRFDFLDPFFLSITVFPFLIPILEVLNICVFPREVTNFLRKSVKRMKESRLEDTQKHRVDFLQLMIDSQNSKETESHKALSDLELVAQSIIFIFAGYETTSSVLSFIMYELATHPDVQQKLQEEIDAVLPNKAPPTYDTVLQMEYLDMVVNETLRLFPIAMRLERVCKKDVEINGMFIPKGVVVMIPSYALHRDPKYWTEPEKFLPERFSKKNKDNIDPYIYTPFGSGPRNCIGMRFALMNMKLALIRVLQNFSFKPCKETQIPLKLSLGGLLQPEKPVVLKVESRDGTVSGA
Excerpt: (§1) Based on a validated physiological-based PK model simulation, strong CYP3A4 inhibitors may increase the exposure (e.g., area under the concentration-time curve) of unconjugated MMAE by ˜50% while acMMAE PK is not affected. Concomitant medications that are strong CYP3A4 inhibitors are considered cautionary as they may potentially lead to adverse reactions, which require close monitoring. […] Concomitant medications that are P-gp inhibitors are considered cautionary as they may potentially lead to adverse reactions, which require close monitoring.

P-glycoprotein (P-gp) = P-glycoprotein (P-gp) (Homo sapiens, UniProt P08183); experiment: P-glycoprotein substrate / inhibitor status; type: in vitro ADME
Sequence of P-glycoprotein (P-gp) (P08183 whole entry): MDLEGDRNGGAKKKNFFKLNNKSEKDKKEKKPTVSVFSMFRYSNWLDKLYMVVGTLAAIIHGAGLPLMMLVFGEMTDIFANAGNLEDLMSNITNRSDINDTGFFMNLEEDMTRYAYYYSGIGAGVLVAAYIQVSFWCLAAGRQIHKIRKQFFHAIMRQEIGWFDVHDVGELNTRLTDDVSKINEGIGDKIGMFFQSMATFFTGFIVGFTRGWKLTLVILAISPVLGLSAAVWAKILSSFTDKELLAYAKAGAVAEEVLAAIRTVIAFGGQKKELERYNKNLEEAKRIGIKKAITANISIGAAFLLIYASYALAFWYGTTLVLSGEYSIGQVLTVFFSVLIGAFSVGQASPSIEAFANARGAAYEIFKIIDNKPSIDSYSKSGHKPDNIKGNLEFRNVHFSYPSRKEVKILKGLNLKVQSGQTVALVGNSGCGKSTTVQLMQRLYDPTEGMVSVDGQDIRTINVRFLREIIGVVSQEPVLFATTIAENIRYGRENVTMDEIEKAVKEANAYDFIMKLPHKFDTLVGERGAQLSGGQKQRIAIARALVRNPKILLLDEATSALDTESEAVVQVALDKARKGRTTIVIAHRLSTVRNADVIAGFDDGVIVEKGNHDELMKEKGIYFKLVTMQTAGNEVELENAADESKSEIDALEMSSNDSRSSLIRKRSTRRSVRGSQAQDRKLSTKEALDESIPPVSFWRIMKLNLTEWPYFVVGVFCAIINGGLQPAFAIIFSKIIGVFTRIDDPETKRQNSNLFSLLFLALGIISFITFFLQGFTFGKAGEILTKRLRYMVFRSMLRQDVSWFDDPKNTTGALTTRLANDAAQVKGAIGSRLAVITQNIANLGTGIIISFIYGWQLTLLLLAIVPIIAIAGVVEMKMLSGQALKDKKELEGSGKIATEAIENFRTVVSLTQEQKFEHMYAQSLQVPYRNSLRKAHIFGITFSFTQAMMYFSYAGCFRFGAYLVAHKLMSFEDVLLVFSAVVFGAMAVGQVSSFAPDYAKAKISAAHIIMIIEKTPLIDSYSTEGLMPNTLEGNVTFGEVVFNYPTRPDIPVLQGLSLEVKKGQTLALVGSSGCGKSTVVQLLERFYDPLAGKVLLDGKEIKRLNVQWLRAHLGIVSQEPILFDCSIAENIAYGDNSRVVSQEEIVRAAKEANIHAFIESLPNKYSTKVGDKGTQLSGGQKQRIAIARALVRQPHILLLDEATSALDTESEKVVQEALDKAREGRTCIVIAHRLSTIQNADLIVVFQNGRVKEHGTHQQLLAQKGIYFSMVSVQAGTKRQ
Excerpt: as §1

For CC[C@H](C)[C@@H]([C@@H](CC(=O)N1CCC[C@H]1[C@H](OC)[C@@H](C)C(=O)N[C@H](C)[C@@H](O)c1ccccc1)OC)N(C)C(=O)[C@@H](NC(=O)[C@@H](NC)C(C)C)C(C)C [MMAE, monomethylauristatin E] (H-[NMeV]V[Dil][Dolaproine]-X1), the “metabolism of unconjugated MMAE by CYP3A4” value (CYP3A4) was “mainly metabolized by CYP3A4” and the P-gp inhibitor (P-glycoprotein (P-gp)) was “not a P-gp inhibitor”.
